Data reported in patent US12037325B2, “1,2-diaminobenzimidazole derivative” (Carna Biosciences, Inc., priority 2021, dated 2024).
Counter-ions that a name gives are not always drawn.

How the values were obtained:
STING = biological target: T1, STING (Homo sapiens, UniProt Q86WV6, G230A/H232R/R293Q/R71H); test: Inhibition test of human IFN-β production by cGAMP stimulation in THP-1 cells; assay type: cell-based; conditions: PMA-treated THP-1 cells, 2'3'-cGAMP transfection, 18 hours, ELISA of culture supernatant; read-out: Inhibitory effect on the IFN-β production
T1 construct: host or cells: THP-1 cells, PMA-treated
T1 sequence (Q86WV6 whole entry R71H/G230A/H232R/R293Q): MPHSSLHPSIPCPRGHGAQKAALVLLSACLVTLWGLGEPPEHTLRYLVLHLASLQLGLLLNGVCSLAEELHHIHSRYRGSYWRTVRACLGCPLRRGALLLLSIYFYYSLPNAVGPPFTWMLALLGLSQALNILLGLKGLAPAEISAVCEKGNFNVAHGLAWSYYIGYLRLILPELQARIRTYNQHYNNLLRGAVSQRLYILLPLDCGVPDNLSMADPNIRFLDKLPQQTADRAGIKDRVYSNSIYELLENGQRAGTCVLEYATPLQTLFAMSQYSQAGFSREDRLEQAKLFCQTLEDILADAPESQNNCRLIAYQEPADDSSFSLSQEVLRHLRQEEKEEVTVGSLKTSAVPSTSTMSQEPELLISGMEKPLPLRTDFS
Experimental: The human monocytic cell line THP-1 cells were used to measure the amount of IFN-β produced when stimulated with the endogenous ligand cGAMP, thereby evaluating the inhibitory activity of the test compounds on STING activation.
After THP-1 cells (manufactured by ATCC) were seeded in 96-well plates, PMA (manufactured by Santa Cruz Biotechnology, Inc.) adjusted to a concentration after addition of 100 nM was added and cultured overnight at a 37° C. in a 5% CO2 incubator (10% FBS, 50 U/mL penicillin/50 μg/mL streptomycin-containing RPMI 1640 medium). To each well of the plate, a test compound solution adjusted to a final concentration of 0.001-1 μM of the test compound was added and cultured in the CO2 incubator for 1 hour (DMSO final concentration of 0.1%). 0.12 μg/well of 2′3′-cGAMP (manufactured by ChemieTek, #CT-CGAMP) was introduced into the cells by transfection method using Lipofectamine 2000 (manufactured by Invitrogen) and cultured in the CO2 incubator for another 18 hours. After collecting the culture supernatant from each well, the amount of human IFN-P production in the culture supernatant was measured by ELISA method using R&D human IFN-β Duoset (manufactured by R&D systems).
(§1) Method for Evaluating Inhibitory Activity. Taking the amount of human IFN-β production in the group without test compounds added and with cGAMP added as 100% and the amount of human IFN-β production in the group without test compounds added and without cGAMP added as 0%, IC50 values were determined by regression analysis of the inhibition rate calculated from the amount of human IFN-β production at each compound concentration and the test compound concentration (logarithm).
Evaluation Result. […] The inhibitory effect on the IFN-β production was indicated by marking an IC50 value of less than 0.01 μM with ***, that of 0.01 μM or more and less than 0.1 μM with **, that of 0.1 μM or more and less than 1 μM with *, and that of 1 μM or more with “-”, and NT was marked as unmeasured.

hSTING = biological target: T2, hSTING (Homo sapiens, UniProt Q86WV6); test: Inhibition test of intracellular human STING (hSTING) pathways using reporter cells (HEK-Blue ISG, SEAP reporter); assay type: cell-based; conditions: stimulation with Compound 3 (10 nM), 21 hours; for IC50: read-out: Inhibitory Activity on hSTING
T2 construct: host or cells: HEK-Blue ISG cells (HEK293-derived SEAP reporter line)
T2 sequence (Q86WV6 whole entry H232R): as the sequence (Q86WV6 whole entry R71H/G230A/H232R/R293Q) above, with H71R, A230G, Q293R counted along it
Experimental: Since STING activates the transcription factor IRF3 by ligand stimulation, the activity of STING can be evaluated by a reporter assay using a secreted alkaline phosphatase (SEAP reporter) incorporated downstream of the IRF-inducible promoter. In other words, the hSTING inhibitory activity of the test compounds was evaluated using HEK-Blue™ ISG cells (manufactured by InvivoGen, #hkb-isg-1) into which the SEAP reporter was incorporated. The activation of hSTING was performed by stimulation with the small molecule ligand, Compound 3 as described in the literature (Ramanjulu, J. M., et al., Nature. 2018, 564 (7736), 439-443).
The HEK-Blue™ ISG cells were seeded in 96-well plates and cultured overnight at 37° C. in a 5% CO2 incubator. To each well of the cell culture plates, a test compound solution adjusted to have a final concentration of 0.1 to 10 μM was added and cultured in the CO2 incubator for 1 hour. Then, the Compound 3 (final concentration of 10 nM) was added thereto and further cultured in the CO2 incubator for 21 hours. After collecting the culture supernatant from each well, the reporter activity was measured by luminous reaction of alkaline phosphatase.
as §1, with “reporter activity” for “amount of human IFN-β production”, “Compound 3” for “cGAMP”
Evaluation Result. […] The inhibitory effect on the hSTING was indicated by marking an IC50 value of less than 0.1 μM with ***, that of 0.1 μM or more and less than 1 μM with **, that of 1 μM or more and less than 10 μM with *, and that of 10 μM or more with “-”.

Row | SMILES | IC50 (STING) | IC50 (hSTING) | Inhibitory Activity on hSTING (hSTING)
1 | Nn1c(Nc2c[nH]c3ccc(Cl)cc23)nc2cc(C(F)(F)F)ccc21 [Example 1, N2-(5-chloro-1H-indol-3-yl)-5-(trifluoromethyl)-1H-benzo[d]imidazol-1,2-diamine Hydrochloride] | < 10 nM | < 100 nM | –
2 | CCNn1c(Nc2c[nH]c3ccc(Cl)cc23)nc2cc(C(F)(F)F)ccc21 [Example 6, N2-(5-chloro-1H-indol-3-yl)-N1-ethyl-5-(trifluoromethyl)-1H-benzo[d]imidazol-1,2-diamine Hydrochloride] | < 10 nM | < 100 nM | –
3 | CNn1c(Nc2c[nH]c3c(F)cc(F)cc23)nc2cc(C(F)(F)F)cc(F)c21 [Example 13, N2-(5,7-difluoro-1H-indol-3-yl)-7-fluoro-N1-methyl-5-(trifluoromethyl)-1H-benzo[d]imidazole-1,2-diamine hydrochloride] | < 10 nM | < 100 nM | –
4 | CNn1c(Nc2c[nH]c3ccc(F)cc23)nc2cc(C(F)(F)F)ccc21 [Example 16, N2-(5-fluoro-1H-indol-3-yl)-N1-methyl-5-(trifluoromethyl)-1H-benzo[d]imidazole-1,2-diamine hydrochloride] | < 10 nM | < 100 nM | –
5 | CNn1c(Nc2c[nH]c3ccc(C)cc23)nc2cc(C(F)(F)F)c(F)cc21 [Example 8, 6-fluoro-N1-methyl-N2-(5-methyl-1H-indol-3-yl)-5-(trifluoromethyl)-1H-benzo[d]imidazole-1,2-diamine] | < 10 nM | < 100 nM | –
6 | Nn1c(Nc2c[nH]c3c(F)cc(F)cc23)nc2cc(C(F)(F)F)ccc21 [Example 21, N2-(5,7-difluoro-1H-indol-3-yl)-5-(trifluoromethyl)-1H-benzo[d]imidazole-1,2-diamine hydrochloride] | 100 to 1000 nM | < 100 nM | –
7 | CC(C)Nn1c(Nc2c[nH]c3ccc(Cl)cc23)nc2cc(C(F)(F)F)ccc21 [Example 20, N2-(5-chloro-1H-indol-3-yl)-N1-isopropyl-5-(trifluoromethyl)-1H-benzo[d]imidazole-1,2-diamine] | – | – | * *
8 | Cc1ccc2[nH]cc(Nc3nc4cc(C(F)(F)F)c(F)cc4n3N)c2c1 [Example 9, 6-fluoro-N2-(5-methyl-1H-indol-3-yl)-5-(trifluoromethyl)-1H-benzo[d]imidazole-1,2-diamine hydrochloride] | < 10 nM | 100 to 1000 nM | –
9 | Nn1c(Nc2c[nH]c3ccc(Cl)cc23)nc2cc(C(F)(F)F)c(F)cc21 [Example 7, N2-(5-chloro-1H-indol-3-yl)-6-fluoro-5-(trifluoromethyl)-1H-benzo[d]imidazole-1,2-diamine hydrochloride] | < 10 nM | < 100 nM | –
10 | CCNn1c(Nc2c[nH]c3c(F)cc(F)cc23)nc2cc(C(F)(F)F)ccc21 [Example 19, N2-(5,7-difluoro-1H-indol-3-yl)-N1-ethyl-5-(trifluoromethyl)-1H-benzo[d]imidazole-1,2-diamine] | < 10 nM | < 100 nM | –
11 | CNn1c(Nc2c[nH]c3cc(F)c(F)cc23)nc2cc(C(F)(F)F)ccc21 [Example 4, N2-(5,6-difluoro-1H-indol-3-yl)-N1-methyl-5-(trifluoromethyl)-1H-benzo[d]imidazol-1,2-diamine] | < 10 nM | < 100 nM | –
12 | CNn1c(Nc2c[nH]c3ccc(F)c(F)c23)nc2cc(C(F)(F)F)c(F)cc21 [Example 12, N2-(4,5-difluoro-1H-indol-3-yl)-6-fluoro-N1-methyl-5-(trifluoromethyl)-1H-benzo[d]imidazole-1,2-diamine hydrochloride] | > 1000 nM | 1000 to 10000 nM | –
13 | CNn1c(Nc2c[nH]c3ccc(Cl)nc23)nc2cc(C(F)(F)F)ccc21 [Example 26, N2-(5-chloro-1H-pyrrolo[3,2-b]pyridin-3-yl)-N1-methyl-5-(trifluoromethyl)-1H-benzo[d]imidazole-1,2-diamine hydrochloride] | 100 to 1000 nM | 1000 to 10000 nM | –
14 | Nn1c(Nc2c[nH]c3ccc(F)c(F)c23)nc2cc(C(F)(F)F)ccc21 [Example 11, N2-(4,5-difluoro-1H-indol-3-yl)-5-(trifluoromethyl)-1H-benzo[d]imidazole-1,2-diamine hydrochloride] | 10 to 100 nM | 100 to 1000 nM | –
15 | CNn1c(Nc2c[nH]c3ccc(C)c(F)c23)nc2cc(C(F)(F)F)ccc21 [Example 17, N2-(4-fluoro-5-methyl-1H-indol-3-yl)-N1-methyl-5-(trifluoromethyl)-1H-benzo[d]imidazole-1,2-diamine hydrochloride] | < 10 nM | < 100 nM | –
16 | CCNn1c(Nc2c[nH]c3c(F)cc(F)cc23)nc2cc(C(F)(F)F)cc(F)c21 [Example 22, N2-(5,7-difluoro-1H-indol-3-yl)-N1-ethyl-7-fluoro-5-(trifluoromethyl)-1H-benzo[d]imidazole-1,2-diamine hydrochloride] | 10 to 100 nM | < 100 nM | –
17 | CCNn1c(Nc2c[nH]c3ccc(F)cc23)nc2cc(C(F)(F)F)ccc21 [Example 29, N1-ethyl-N2-(5-fluoro-1H-indol-3-yl)-5-(trifluoromethyl)-1H-benzo[d]imidazole-1,2-diamine] | 10 to 100 nM | < 100 nM | –
18 | CCNn1c(Nc2c[nH]c3ccc(Cl)cc23)nc2cc(C(F)(F)F)cc(F)c21 [Example 14, N2-(5-chloro-1H-indol-3-yl)-N1-ethyl-7-fluoro-5-(trifluoromethyl)-1H-benzo[d]imidazole-1,2-diamine] | < 10 nM | < 100 nM | –
19 | CCCNn1c(Nc2c[nH]c3ccc(Cl)cc23)nc2cc(C(F)(F)F)ccc21 [Example 24, N2-(5-chloro-1H-indol-3-yl)-N1-propyl-5-(trifluoromethyl)-1H-benzo[d]imidazole-1,2-diamine] | 10 to 100 nM | < 100 nM | –
20 | CCNn1c(Nc2c[nH]c3cc(F)c(F)cc23)nc2cc(C(F)(F)F)ccc21 [Example 15, N2-(5,6-difluoro-1H-indol-3-yl)-N1-ethyl-5-(trifluoromethyl)-1H-benzo[d]imidazole-1,2-diamine] | < 10 nM | < 100 nM | –
21 | Nn1c(Nc2c[nH]c3cc(F)c(F)cc23)nc2cc(C(F)(F)F)ccc21 [Example 2, N2-(5,6-difluoro-1H-indol-3-yl)-5-(trifluoromethyl)-1H-benzo[d]imidazol-1,2-diamine Formate] | < 10 nM | < 100 nM | –
22 | Cl.[2H]C([2H])([2H])Nn1c(Nc2c[nH]c3ccc(Cl)cc23)nc2cc(C(F)(F)F)ccc21 [Example 25, N2-(5-chloro-1H-indol-3-yl)-N1-(methyl-d3)-5-(trifluoromethyl)-1H-benzo[d]imidazole-1,2-diamine hydrochloride] | < 10 nM | < 100 nM | –
23 | CNn1c(Nc2c[nH]c3cc(F)c(F)cc23)nc2cc(C(F)(F)F)c(F)cc21 [Example 10, N2-(5,6-difluoro-1H-indol-3-yl)-6-fluoro-N1-methyl-5-(trifluoromethyl)-1H-benzo[d]imidazole-1,2-diamine] | 10 to 100 nM | 100 to 1000 nM | –
24 | Nn1c(Nc2c[nH]c3ccc(F)cc23)nc2cc(C(F)(F)F)ccc21 [Example 28, N2-(5-fluoro-1H-indol-3-yl)-5-(trifluoromethyl)-1H-benzo[d]imidazole-1,2-diamine] | 10 to 100 nM | 100 to 1000 nM | –
